# Values of other authors, collected in US20230086007A1, “USE OF DENATONIUM BENZOATE AS A SEED TREATMENT FOR CROPS AS BIRD AND/OR INSECT REPELLENT” (KWS SAAT SE & Co. KGaA, priority 2020, published 2023).
# Test system: maize
# Settings: maize seed treatment; cited from earlier work
smiles,measurement,value
CN(C)C(=S)SSC(=S)N(C)C [Thiram],effect on early seedling vigour,significant reduction in early seedling vigour
